The subject of one assay is E. faecalis AR-0671. In words: Broth microdilution MIC, E. faecalis AR-0671. Type of assay: cell-based, Enterococcus faecalis. Conditions: for MIC: Enterococcus faecalis. The text has this:
(§1) The multidrug-resistant S. aureus strain TCH 1516 [USA 300-HOU-MR] was obtained from the American Type Culture Collection (ATCC, Manassas, VA, USA) (Table 1). E. faecalis AR-0671, multidrug-resistant E. coli AR-0001, K. pneumoniae AR-0003, P. aeruginosa AR-1114, and A. baumannii AR-0273 strains were acquired from the Centers for Disease Control and Prevention (CDC) AR isolate bank (Table 1). Prior to the initiation of this study, all microbial strains were stored in commercial cryopreservation systems at a temperature of −80 °C. The strains were cultivated on Columbia sheep blood agar (Becton Dickinson, Franklin Lakes, NJ, USA) or potato dextrose agar (PDA) for Candida (Becton Dickinson, Franklin Lakes, NJ, USA).
(§2) The antimicrobial activity of 3-((3-hydroxyphenyl)amino)propanoic acid derivatives was assessed by using the broth microdilution method, following the guidelines outlined by the Clinical Laboratory Standards Institute (CLSI), with modifications. In brief, the compounds were dissolved in dimethyl sulfoxide (DMSO) to attain a final concentration of 25–30 mg/mL. Vancomycin hydrochloride (MedChem express, Cat. No. HY-17362), cefazolin (MedChem express, Cat. No. HY-B1892), and meropenem (MedChem express, Cat. No. HY-13678) were used as control antimicrobial drugs and were dissolved in DMSO as described before. Dilution series were prepared in deep 96-well microplates to achieve a two-fold concentration range of 0.25, 0.5, 1, 2, 4, 8, 16, 32, and 64 µg/mL, utilizing cation-adjusted Mueller–Hinton broth (CAMHB) as the growth medium. The microplates containing the dilution series were then inoculated with fresh cultures of each tested organism to reach a final concentration of 5 × 10^4 CFU (colony-forming units) of the test organism in media containing 1% DMSO and 1× drug concentration, with a volume of 200 µL per well. Wells that were inoculated with medium containing 1% DMSO served as positive controls. Subsequently, the microplates were incubated at 35 ± 1 °C for 18 ± 2 h. Following the incubation period, the plates were examined by using a manual microplate viewer (Sensititre Manual Viewbox, ThermoFisher Scientific, Waltham, MA, USA). […] All experiments were conducted in duplicate with three technical replicates for each condition.
In general terms: Dilution methods test growth across graded concentrations, often in twofold steps.

A further assay relates to A. baumannii AR-0273. In words: Broth microdilution MIC, A. baumannii AR-0273. The format is cell-based, Acinetobacter baumannii. Conditions: Acinetobacter baumannii, AR0273; OXA-23; CAMHB, 18 ± 2 h; read-out: minimal inhibitory concentration (MIC) A. baumannii AR-0273.
Description: as §1, §2

The next assay deals with S. aureus TCH 1516. In words: Broth microdilution MIC, S. aureus TCH 1516. The format is cell-based. The following applies: Staphylococcus aureus.
The test system of the next assay is E. coli AR-0001. Description: Broth microdilution MIC, E. coli AR-0001. The format is cell-based. The following applies: Escherichia coli, AR0001; multidrug-resistant, KPC-3; CAMHB, 18 ± 2 h; read-out: minimal inhibitory concentration (MIC) E. coli AR-0001.
The next assay has as its system K. pneumoniae AR-0003. Description: Broth microdilution MIC, K. pneumoniae AR-0003. Type of assay: cell-based. The following applies: Klebsiella pneumoniae, AR0003; KPC-3; CAMHB, 18 ± 2 h; read-out: minimal inhibitory concentration (MIC) K. pneumoniae AR-0003.
Another assay relates to P. aeruginosa AR-1114. In words: Broth microdilution MIC, P. aeruginosa AR-1114. Type of assay: cell-based. The following applies: Pseudomonas aeruginosa, AR1114; IMP-15; CAMHB, 18 ± 2 h; read-out: minimal inhibitory concentration (MIC) P. aeruginosa AR-1114.
Where [1] appears, read: AR0671, CAMHB, 18 ± 2 h, read-out: minimal inhibitory concentration (MIC) E. faecalis AR-0671.
The mark [2] stands for this setting: MRSA / USA300, mecA MRSA isolate, USA300 lineage, CAMHB, 18 ±, read-out: minimal inhibitory concentration (MIC) S. aureus TCH 1516.

Converted amounts (≈) assume the structure as drawn. Structures can show the parent of a compound that is named as a salt. Where two headings read alike, the source gives them in different places.

Turning to `CCC(C)=NNC(=O)CCN(CCC(=O)NN=C(C)CC)c1cccc(O)c1` [Compound 20, 3,3′-((3-Hydroxyphenyl)azanediyl)bis(N′-(butan-2-ylidene)propanehydrazide)], the MIC with E. faecalis AR-0671 (setting [1]) was 32 µg/mL (≈ 82.2 µM); in the assay with A. baumannii AR-0273, greater than 64 µg/mL; in the assay on S. aureus TCH 1516 (setting [2]), 16 µg/mL (≈ 41.1 µM); in the assay on E. coli AR-0001 it was greater than 64 µg/mL; in the assay with K. pneumoniae AR-0003, greater than 64 µg/mL; in the assay on P. aeruginosa AR-1114 it was greater than 64 µg/mL.

Turning to `O=C(CCN(CCC(=O)NN=Cc1ccc(Cl)cc1)c1cccc(O)c1)NN=Cc1ccc(Cl)cc1` [Compound 11, 3,3′-((3-Hydroxyphenyl)azanediyl)bis(N′-(4-chlorobenzylidene)propanehydrazide)], the “minimal inhibitory concentration (MIC) E. faecalis AR-0671” value in the assay with E. faecalis AR-0671 (CAMHB) was greater than 64 µg/mL. Besides, the MIC with E. faecalis AR-0671 (setting [1]) was greater than 64 µg/mL; with A. baumannii AR-0273, greater than 64 µg/mL; in the assay on S. aureus TCH 1516 (setting [2]), 64 µg/mL (≈ 122 µM); in the assay with E. coli AR-0001, greater than 64 µg/mL; in the assay on K. pneumoniae AR-0003, greater than 64 µg/mL; with P. aeruginosa AR-1114, greater than 64 µg/mL.

In the case of `C/C(=N\NC(=O)CCN(CCC(=O)N/N=C(\C)c1ccc(S(N)(=O)=O)cc1)c1cccc(O)c1)c1ccc(S(N)(=O)=O)cc1` [Compound 22, 4,4′-(((3,3′-((3-Hydroxyphenyl)azanediyl)bis(propanoyl))bis(hydrazin-2-yl-1-ylidene))bis(ethan-1-yl-1-ylidene))dibenzenesulfonamide], the MIC in the assay with E. faecalis AR-0671 (setting [1]) is 32 µg/mL (≈ 49.7 µM); in the assay with A. baumannii AR-0273, greater than 64 µg/mL; in the assay on S. aureus TCH 1516 (setting [2]), 8 µg/mL (≈ 12.4 µM); in the assay on E. coli AR-0001 it was 16 µg/mL (≈ 24.9 µM); with K. pneumoniae AR-0003 it was greater than 64 µg/mL; in the assay on P. aeruginosa AR-1114 it was greater than 64 µg/mL.

For `CN[C@H](CC(C)C)C(=O)N[C@H]1C(=O)N[C@@H](CC(N)=O)C(=O)N[C@H]2C(=O)N[C@H]3C(=O)N[C@H](C(=O)N[C@H](C(=O)O)c4cc(O)cc(O)c4-c4cc3ccc4O)[C@H](O)c3ccc(c(Cl)c3)Oc3cc2cc(c3O[C@@H]2O[C@H](CO)[C@@H](O)[C@H](O)[C@H]2O[C@H]2C[C@](C)(N)[C@H](O)[C@H](C)O2)Oc2ccc(cc2Cl)[C@H]1O` [Vancomycin, Vancomycin hydrochloride, reference compound], the MIC in the assay with E. faecalis AR-0671 (AR0671, read-out: minimal inhibitory concentration (MIC) E. faecalis AR-0671) came out at 4 µg/mL; in the assay with S. aureus TCH 1516 (MRSA / USA300, read-out: minimal inhibitory concentration (MIC) S. aureus TCH 1516), 2 µg/mL.

As to `O=C(CCN(CCC(=O)NN=Cc1cccc2ccccc12)c1cccc(O)c1)NN=Cc1cccc2ccccc12` [Compound 14, 3,3′-((3-Hydroxyphenyl)azanediyl)bis(N′-(naphthalen-1-ylmethylene)propanehydrazide)], the MIC in the assay with E. faecalis AR-0671 (setting [1]) is 8 µg/mL (≈ 14.3 µM); in the assay with A. baumannii AR-0273, greater than 64 µg/mL; with S. aureus TCH 1516 (setting [2]), 2 µg/mL (≈ 3.59 µM); with E. coli AR-0001 it was 64 µg/mL (≈ 115 µM); with K. pneumoniae AR-0003 it was greater than 64 µg/mL; in the assay on P. aeruginosa AR-1114, greater than 64 µg/mL.

Regarding `O=C(CCN(CCC(=O)NN=Cc1ccc(F)cc1F)c1cccc(O)c1)NN=Cc1ccc(F)cc1F` [Compound 9, 3,3′-((3-Hydroxyphenyl)azanediyl)bis(N′-(2,4-difluorobenzylidene)propanehydrazide)], the MIC in the assay on E. faecalis AR-0671 (setting [1]), with A. baumannii AR-0273, with S. aureus TCH 1516 (setting [2]), in the assay with E. coli AR-0001, in the assay on K. pneumoniae AR-0003 and in the assay on P. aeruginosa AR-1114 was greater than 64 µg/mL throughout.

For `Cc1nnc(SCC2=C(C(=O)O)N3C(=O)[C@@H](NC(=O)Cn4cnnn4)[C@H]3SC2)s1` [Cefazolin, cefazolin, reference compound], the MIC in the assay with E. faecalis AR-0671 (setting [1]) was 8 µg/mL (≈ 17.6 µM); in the assay on A. baumannii AR-0273, greater than 64 µg/mL; with S. aureus TCH 1516 (setting [2]), 32 µg/mL (≈ 70.4 µM); in the assay with E. coli AR-0001, greater than 64 µg/mL; with K. pneumoniae AR-0003, greater than 64 µg/mL; in the assay on P. aeruginosa AR-1114 it was greater than 64 µg/mL.

On to `CC(=NNC(=O)CCN(CCC(=O)NN=C(C)c1ccccc1)c1cccc(O)c1)c1ccccc1` [Compound 21, 3-((3-Hydroxyphenyl)(3-oxo-3-(2-(1-phenylethylidene)hydrazineyl)propyl)amino)-N′-(1-phenylethylidene)propanehydrazide], for which the MIC in the assay on E. faecalis AR-0671 (setting [1]) was 32 µg/mL (≈ 65.9 µM); in the assay on A. baumannii AR-0273, greater than 64 µg/mL; with S. aureus TCH 1516 (setting [2]), 32 µg/mL (≈ 65.9 µM); in the assay on E. coli AR-0001, greater than 64 µg/mL; in the assay on K. pneumoniae AR-0003, greater than 64 µg/mL; in the assay with P. aeruginosa AR-1114, greater than 64 µg/mL.

Source of the values: publication PMC12115217, “3,3′-((3-Hydroxyphenyl)azanediyl)dipropionic Acid Derivatives as a Promising Scaffold Against Drug-Resistant Pathogens and Chemotherapy-Resistant Cancer” (Pathogens, 2025).
